According to article PMC6822579, “A novel benzoxazinone derivative YLT-LL-11 inhibits diffuse large B-cell lymphoma growth via inducing cell cycle arrest and apoptosis” (Bioscience Reports, 2019):

Target: T1, BRD4 (D1); BRD4 (BD1) (Homo sapiens, UniProt O60885)
T1 construct: first bromodomain (D1/BD1), purchased from Biogenie, Canada
Assay: AlphaScreen peptide displacement assay
Format: binding

IC50: 0.999 µM
SMILES: CCC1Oc2cc(NS(=O)(=O)c3ccccc3OC)ccc2NC1=O (stereo not shown) [compound 5, N-(2-ethyl-3-oxo-3,4-dihydro-2H-benzo[b] [1, 4]oxazin-7-yl)-2-methoxybenzenesulfonamide]
